Test results: patent US20200253877A1, “GEMCABENE, PHARMACEUTICALLY ACCEPTABLE SALTS THEREOF, COMPOSITIONS THEREOF AND METHODS OF USE THEREFOR” (NEUROBO PHARMACEUTICALS, INC., priority 2018, published 2020)

Tests used:
[1] = Solubility of gemcabene calcium salt hydrate Crystal Form 1 by solvent addition method; type: physicochemical; details: thermodynamic from solid
Method: Approximately 20 mg of gemcabene calcium Crystal Form 1 was added to 5×2 mL vials. The solubility in 5 solvents was tested using a solvent addition method. Solvents included acetone, ethanol, ethyl acetate, t-butyl methyl ether (t-BME) and water. Solvent was added in 5 volume (100 μL) aliquots until either dissolution or 2 mL in total had been added. Between each addition, samples were heated to 60° C. (40° C. for acetone and t-BME). Any solids remaining after 24 hours at ambient were analyzed by X-ray powder diffraction (XRPD).

[2] = Tablet dissolution in pH 5.0 potassium acetate, USP apparatus 2, UV/Vis fiber optic quantitation (216 nm to 230 nm); type: physicochemical; details: film-coated Tablets D, F2, C3, ES (average n=6)
Method: Tablet's gemcabene dissolution profiles were evaluated using an ultra-violet/visible (uv/vis) light absorption methodology in which dissolved gemcabene in the dissolution media was directly measured inside the dissolution vessel. This method of analysis allowed for real-time measurement of gemcabene dissolution at multiple, closely spaced sampling intervals. This method provides a higher resolution dissolution profile than could be obtained with the HPLC analysis methodology used in Example 13 and allowed for detection of differences in dissolution characteristics between the various gemcabene calcium polymorphs. […] FIG. 56 compares the gemcabene dissolution profiles generated using these two methodologies and Table 28 reports the gemcabene dissolution profiles and % RSD for n=6 dissolution testing conducted with both methods of analysis.

[3] = system: patients with familial hypercholesterolemia (FH); test: Open-label escalating-dose study (300, 600, 900 mg) in familial hypercholesterolemia patients on stable lipid-lowering therapy: LDL-C; type: in vivo, human; details: Patient 1
Method: A study was performed to evaluate the efficacy of film-coated Tablet D in treating patients with familial hypercholesterolemia (FH) and who are on stable, lipid-lowering therapy. Male and female patients ≥17 years of age who had been diagnosed with FH by genetic confirmation or a clinical diagnosis based on either (1) a history of an untreated LDL-C concentration ≥500 mg/dl (12.92 mmol/L) together with either appearance of xanthoma before 10 years of age, or evidence of familial hypercholesterolemia in both parents or (2) LDL-C >300 mg/dl (7.76 mmol/L) on maximally tolerated lipid-lowering drug therapy were enrolled in the study.
The study was a 3-period, 3-treatment study using successively escalating doses of 300 mg, 600 mg, and 900 mg gemcabene calcium salt hydrate Crystal Form 1 (PSD90=52 μm). All patients were on each of the successive doses for 4 weeks at a time. Patients remained on their stable, lipid-lowering therapy throughout the study.
Each patient received one 300 mg gemcabene calcium salt hydrate Crystal Form 1 tablet (film-coated Tablet D) orally QD (alternatively written as q.d.; meaning “once a day”) for 4 weeks. The same patients then received 600 mg gemcabene calcium salt hydrate Crystal Form 1 orally QD for 4 weeks. The 600 mg dose consisted of two 300-mg tablets (film-coated Tablet D×2). […]
LDL-C values were measured after the patient had been administered film-coated Tablet D for 2 weeks for each dosing level and on the last day of each dose. For each escalated dose, percent change from baseline in LDL-C was calculated using the baseline LDL-C value and the final LDL-C value measured for each dose. […]
This was an open-label, dose-finding, 3-period, 3-treatment study using successively escalating doses of 300 mg, 600 mg, and 900 mg gemcabene calcium salt hydrate Crystal Form 1 having PSD90 of 52 μm in patients clinically diagnosed with familial hypercholesterolemia (FH). […] Plasma from these samples were analyzed for gemcabene concentrations and the data used for PK analysis. […]

[4] = 12-week placebo-controlled study in hypercholesterolemia patients on statins: safety and tolerability; type: in vivo; details: 600 mg QD, 12 weeks
Method: High-risk patients including some, but not all those with heterozygous familial hypercholesterolemia (HeFH) or atherosclerotic cardiovascular disease (ASCVD) on appropriate diet and stable statin therapy for at least 12 weeks and LDL-C ≥100 mg/dL (2.59 mmol/L) and triglycerides <500 mg/dL (5.65 mmol/L) were randomized into a 12-week, placebo-controlled, parallel-group, double-blind study to assess the efficacy of gemcabene calcium salt hydrate Crystal Form 1 (PSD90=52 μm) 600 mg (300-mg film-coated Tablet D×2) QD on LDL-C and other lipoproteins and hsCRP (high-sensitivity C-reactive protein). Safety and tolerability were also evaluated. The patients were stratified by high- or moderate-intensity statin therapy, with or without ezetimibe, with a target of 52 patients (26 patients on 600 mg gemcabene calcium salt hydrate Crystal Form 1 as administered by 2×film-coated Tablet D and 26 patients on placebo (“placebo”)) in each stratum. […] Mean baseline LDL-C for all patients was approximately 134 mg/dL (3.48 mmol/L) with most patients in the high-intensity statin stratum on atorvastatin and most patients in the moderate-intensity stratum on either simvastatin or atorvastatin.
33 of 54 patients (61.1%) in the film-coated Tablet D group and 24 of 51 patients (47.1%) in the placebo group who reported at least one AE during the study. […]

CC(C)(CCCCOCCCCC(C)(C)C(=O)O)C(=O)O.[Ca] [6-(5-Carboxy-5-methyl-hexyloxy)-2,2-dimethylhexanoic acid calcium]
solubility ([1]; organic solvent or mixture, Acetone, heated to 40° C. between additions): < 10000 µg/mL | solubility ([1]; organic solvent or mixture, Ethanol, heated to 60° C. between additions): < 10000 µg/mL | solubility ([1]; organic solvent or mixture, Ethyl Acetate, heated to 60° C. between additions): < 10000 µg/mL | solubility ([1]; organic solvent or mixture, t-Butyl Methyl Ether (t-BME), heated to 40° C. between additions): < 10000 µg/mL | solubility ([1]; Water, heated to 60° C. between additions): 33000 µg/mL | gemcabene dissolution rate of film-coated tablets, compared among polymorphs [2]: intermediate profile | LDL-C reduction compared to baseline ([3]; 300 mg oral QD, 4 weeks): 55.2% | LDL-C reduction compared to baseline ([3]; 600 mg oral QD, 8 weeks): 49.8% | LDL-C reduction compared to baseline ([3]; 900 mg oral QD, 12 weeks): 54.5% | serious adverse events and deaths [4]: no serious adverse events (AEs) and no deaths
